The nature of series [1]: Evaluation of oral absorbability (plasma concentration after oral administration). Format: in vivo. The settings on record: BALB/cA mouse, 0.5% HPMC, 0.5-6 hours. The protocol: The test compound was suspended or dissolved in 0.5% HPMC and orally administered to a BALB/cA mouse. The blood was drawn from the retro-orbital venous plexus 0.5, 1, 2, 4, and 6 hours after oral administration to obtain plasma. The concentration of the compound in the plasma thus obtained was measured by LCMS and the oral absorbability was evaluated.

For series [2], the system named is human-derived stomach cancer cell line SNU-16. Put plainly: Inhibitory effect on cell proliferation (CellTiter-Glo, 72 hours). Format: cell-based. The following applies: SNU-16, 72 hours. The text has this: Cells of the human-derived stomach cancer cell line SNU-16 were each routinely subcultured in the 10% fetal bovine serum (FBS)-containing RPMI-1640 medium and 10% FBS-containing Dulbecco's Modified Eagle Medium (DMEM) in order to maintain cell density of no more than 80%. In order to initiate a test for the inhibitory activity on cell proliferation, cells were each suspended in the aforementioned medium and seeded in each well of a 96-well flat bottom plate (black plate with a transparent bottom) at 2,500 or 3,000 cells per well. The cells were then cultured for one day at 37° C. in an incubator containing 5% carbon dioxide gas. The next day, the compound of the present invention and the subject compound were dissolved in DMSO, and using DMSO, the test compounds were serially diluted to a concentration of 200 times the final concentration. The solution of the test compounds in DMSO was diluted with the medium used for culturing, and then added to each well of the cell culture plate at a final DMSO concentration of 0.5%. The cells were cultured for 72 hours at 37° C. in an incubator containing 5% carbon dioxide gas. The cells were counted at the time of addition of the test compounds and 72 hours after culturing using the CellTiter-Glo Luminescent Cell Viability Assay kit (the product of Promega) based on the protocol recommended by Promega. The reagent included in the kit was added to each plate, followed by stirring, and the plates were left to stand at room temperature for 10 minutes. Upon completion of the reaction, the luminescence signal was measured using a microplate reader.
The cell proliferation inhibitory rate was calculated from the following formula and the concentration of the test compound at which the cell proliferation was inhibited by 50% (GI50 (nM)) was determined. Cell proliferation inhibitory rate (%)=(C−T)/(C−C0)×100 T: Luminescence signal in a well with the addition of the test compound C: Luminescence signal in a well without the addition of the test compound C0: Luminescence signal in a well measured before the addition of the compound
A general note: Cellular ATP, detected with luciferase, serves as a proxy for viable cell number.

The subject of series [3] is human uterine cervical cancer cell line (Hela-Luc). Put plainly: Evaluation of the anti-tumor effect (2), Hela-Luc subcutaneous transplant in nude mouse. Format: in vivo. The settings on record: Day 11, paclitaxel 20 mg/kg iv day 1.
For series [4] the test system is unchanged. As to the kind of experiment: Evaluation of the anti-tumor effect (1), Hela-Luc subcutaneous transplant in nude mouse. The settings on record: Day 23; paclitaxel 30 mg/kg iv day 1; compound 60 mg/kg oral twice a day on day 2 and 3.
From the text: The luciferase-introduced human uterine cervical cancer cell line (Hela-Luc) was subcutaneously transplanted into a nude mouse, and when the volume of the grafted tumor reached 100 to 200 mm^3, five mice in one group were grouped into the single drug administration group and combinational administration group by a randomized stratification method so as to achieve a uniform tumor volume in each group (day 1). […] In order to compare the anti-tumor effect brought about by drug administration, setting the tumor volume at the time of grouping at 1, the relative tumor volume (RTV) was determined in accordance with the following formula as a rate of tumor proliferation. RTV=(Tumor volume on the day of measurement of tumor volume)/(Tumor volume at the time of grouping)
Meanwhile, as the index of systemic toxicity caused by drug administration, the body weight change (BWC) was used. BWC (%)=([(Body weight of mouse on the day of body weight measurement)−(Body weight of mouse at the time of grouping)]/(Body weight of mouse at the time of grouping))×100
[5] abbreviates: Table 22, Compound 13 30 mg/kg oral twice a day on day 2 and 3.
Where [6] appears, read: Table 23, Compound 22 100 mg/kg single, 60 mg/kg in combination, oral twice a day on day 2 and 3.

Consider six molecules from US10092556B2, “Piperidine compound or salt thereof” (TAIHO PHARMACEUTICAL CO., LTD., priority 2012, dated 2018).

Each structure is given as a SMILES string.

For `Cc1cc(Nc2nc(CC3(C(=O)O)CCN(C(=O)c4cccc(Cl)c4F)CC3)ccc2Cl)n[nH]1` [Example 12, 1-(3-chloro-2-fluorobenzoyl)-4-((5-chloro-6-(5-methyl-1H-pyrazol-3-ylamino)pyridin-2-yl)methyl)piperidine-4-carboxylic acid], the “oral absorbability (plasma concentration after oral administration)” value (shortened to “oral absorbability”) in series [1] is “favorable oral absorbability”.
Same read-out and setting: the value for `COc1ccc(CC2(C(=O)O)CCN(C(=O)c3cccc(Cl)c3F)CC2)nc1Nc1cc(C)[nH]n1` [Example 11, 1-(3-chloro-2-fluorobenzoyl)-4-((5-methoxy-6-(5-methyl-1H-pyrazol-3-ylamino)pyridin-2-yl)methyl)piperidine-4-carboxylic acid] was “favorable oral absorbability”.
As a reminder, the GI50 is the concentration at which growth is held to half of that of the control. A high value points to less potent growth inhibition. On to `Cc1cc(Nc2nc(CC3(C(=O)O)CCN(C(=O)c4cccc(Cl)c4Cl)CC3)ccc2F)n[nH]1` [Example 1, 1-(2,3-dichlorobenzoyl)-4-((5-fluoro-6-(5-methyl-1H-pyrazol-3-ylamino)pyridin-2-yl)methyl)piperidine-4-carboxylic acid], for which, in series [1], the “oral absorbability” value was “favorable oral absorbability”. This molecule also came in with a concentration for 50% growth inhibition (GI50) in series [2] of 120 nM.
Take `Cc1cc(Nc2nc(CC3(C(=O)O)CCN(C(=O)c4cccc(Cl)c4F)CC3)ccc2F)n[nH]1` [Example 13, 1-(3-chloro-2-fluorobenzoyl)-4-((5-fluoro-6-(5-methyl-1H-pyrazol-3-ylamino)pyridin-2-yl)methyl)piperidine-4-carboxylic acid]: the “oral absorbability” value in series [1] was “favorable oral absorbability”. Further, the “BWC (body weight change)” value in series [3] (setting [5]) stood at 6.0%. Moreover, in series [2], the GI50 was 60 nM.
Regarding `CC(=O)O[C@H]1C(=O)[C@@]2(C)[C@H]([C@H](OC(=O)c3ccccc3)[C@]3(O)C[C@H](OC(=O)[C@H](O)[C@@H](NC(=O)c4ccccc4)c4ccccc4)C(C)=C1C3(C)C)[C@]1(OC(C)=O)CO[C@@H]1C[C@@H]2O` [Paclitaxel, paclitaxel, reference compound], the entries for the “BWC (body weight change)” value in series [4], in series [3] (setting [5]) and in series [3] (setting [6]) were 3.0%, 5.4% and 7.8%, respectively.
Turning to `Cc1cc(Nc2nc(CC3(c4noc(C)n4)CCN(C(=O)c4cccc(Cl)c4F)CC3)ccc2F)n[nH]1` [Example 22, (3-chloro-2-fluorophenyl)(4-((5-fluoro-6-(5-methyl-1H-pyrazol-3-ylamino)pyridin-2-yl)methyl)-4-(5-methyl-1,2,4-oxadiazol-3-yl)piperidin-1-yl)methanone], in series [1], the “oral absorbability” value is reported as “favorable oral absorbability”. Further, the “BWC (body weight change)” value in series [3] (setting [6]) is recorded as 6.9%. In series [2], this molecule registered a concentration for 50% growth inhibition (GI50) of 970 nM.
